# ChEMBL document CHEMBL1201862, “PubChem BioAssay data set” (2004)
#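 Dose response: 5 concentrations. Exposure: 48 h. Format: 96-well plates. Endpoint: linear interpolation; highest concentration if not reached. At the GI50, growth is halved.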 Active and inactive are the calls of the source. No stated cut-off is given here; in the data, active = GI50 up to about 1.1 µM and inactive = higher.
# Legend:
# Test in all cases: NCI tumour cell line growth inhibition, 48 h
# M14 = test system: M14
# RPMI-8226 = test system: RPMI-8226
# BT-549 = test system: BT-549
# OVCAR-8 = test system: OVCAR-8
# UO-31 = test system: UO-31
# SK-MEL-2 = test system: SK-MEL-2
# DU-145 = test system: DU-145
# CCRF-CEM = test system: CCRF-CEM
# SNB-75 = test system: SNB-75
# OVCAR-4 = test system: OVCAR-4
# HT-29 = test system: HT-29
# NCI-H23 = test system: NCI-H23
# SNB-19 = test system: SNB-19
# A498 = test system: A498
# KM12 = test system: KM12
# HCT-116 = test system: HCT-116
# A549 = test system: A549
# COLO 205 = test system: COLO 205
# HOP-92 = test system: HOP-92
# MDA-MB-231 = test system: MDA-MB-231
# MOLT-4 = test system: MOLT-4
# K562 = test system: K562
# SK-OV-3 = test system: SK-OV-3
# EKVX = test system: EKVX
# SK-MEL-28 = test system: SK-MEL-28
# LOX IMVI = test system: LOX IMVI
# ACHN = test system: ACHN
# OVCAR-3 = test system: OVCAR-3
# SF-295 = test system: SF-295
# NCI/ADR-RES = test system: NCI/ADR-RES
# U-251 = test system: U-251
# SW-620 = test system: SW-620
# HCT-15 = test system: HCT-15
# OVCAR-5 = test system: OVCAR-5
# HL-60 = test system: HL-60
# UACC-257 = test system: UACC-257
# SK-MEL-5 = test system: SK-MEL-5
# IGROV-1 = test system: IGROV-1
# T47D = test system: T47D
# CAKI-1 = test system: CAKI-1
# MDA-N = test system: MDA-N
# UACC-62 = test system: UACC-62
# SR = test system: SR
# MCF7 = test system: MCF7
# NCI-H226 = test system: NCI-H226
# TK-10 = test system: TK-10
# PC-3 = test system: PC-3
# 786-0 = test system: 786-0
# SN12C = test system: SN12C
# HOP-62 = test system: HOP-62
# SF-268 = test system: SF-268
# SF-539 = test system: SF-539
# NCI-H460 = test system: NCI-H460
# RXF 393 = test system: RXF 393
# Malme-3M = test system: Malme-3M
# NCI-H522 = test system: NCI-H522
# MDA-MB-435 = test system: MDA-MB-435
# HCC 2998 = test system: HCC 2998
smiles,measurement,setting,value
NN/C(=N\S(=O)(=O)c1cccc2nsnc12)Nc1ccc(Cl)cc1,GI50,M14,> 100 µM (inactive)
same,GI50,RPMI-8226,> 100 µM (inactive)
same,GI50,BT-549,> 100 µM (inactive)
same,GI50,OVCAR-8,> 100 µM (inactive)
same,GI50,UO-31,> 100 µM (inactive)
same,GI50,SK-MEL-2,> 100 µM (inactive)
same,GI50,DU-145,> 100 µM (inactive)
same,GI50,CCRF-CEM,> 100 µM (inactive)
same,GI50,SNB-75,65.9 µM (inactive)
same,GI50,OVCAR-4,> 100 µM (inactive)
same,GI50,HT-29,> 100 µM (inactive)
same,GI50,NCI-H23,> 100 µM (inactive)
same,GI50,SNB-19,> 100 µM (inactive)
same,GI50,A498,> 100 µM (inactive)
same,GI50,KM12,> 100 µM (inactive)
same,GI50,HCT-116,> 100 µM (inactive)
same,GI50,A549,> 100 µM (inactive)
same,GI50,COLO 205,> 100 µM (inactive)
same,GI50,HOP-92,> 100 µM (inactive)
same,GI50,MDA-MB-231,> 100 µM (inactive)
same,GI50,MOLT-4,61 µM (inactive)
same,GI50,K562,> 100 µM (inactive)
same,GI50,SK-OV-3,> 100 µM (inactive)
same,GI50,EKVX,> 100 µM (inactive)
same,GI50,SK-MEL-28,> 100 µM (inactive)
same,GI50,LOX IMVI,> 100 µM (inactive)
same,GI50,ACHN,> 100 µM (inactive)
same,GI50,OVCAR-3,> 100 µM (inactive)
same,GI50,SF-295,> 100 µM (inactive)
same,GI50,NCI/ADR-RES,> 100 µM (inactive)
same,GI50,U-251,> 100 µM (inactive)
same,GI50,SW-620,> 100 µM (inactive)
same,GI50,HCT-15,> 100 µM
same,GI50,OVCAR-5,> 100 µM (inactive)
same,GI50,HL-60,9.98 µM (inactive)
same,GI50,UACC-257,> 100 µM (inactive)
same,GI50,SK-MEL-5,> 100 µM (inactive)
same,GI50,IGROV-1,> 100 µM (inactive)
same,GI50,T47D,48.6 µM (inactive)
same,GI50,CAKI-1,> 100 µM (inactive)
same,GI50,MDA-N,> 100 µM (inactive)
same,GI50,UACC-62,> 100 µM (inactive)
same,GI50,SR,> 100 µM (inactive)
same,GI50,MCF7,> 100 µM (inactive)
same,GI50,NCI-H226,> 100 µM (inactive)
same,GI50,TK-10,> 100 µM (inactive)
same,GI50,PC-3,> 100 µM (inactive)
same,GI50,786-0,> 100 µM (inactive)
same,GI50,SN12C,> 100 µM (inactive)
same,GI50,HOP-62,> 100 µM (inactive)
same,GI50,SF-268,26.2 µM (inactive)
same,GI50,SF-539,> 100 µM (inactive)
same,GI50,NCI-H460,> 100 µM (inactive)
same,GI50,RXF 393,> 100 µM (inactive)
CC(=O)NS(=O)(=O)c1ccc(NC(=O)c2c3ccccc3nc3ccccc23)cc1,GI50,M14,> 100 µM (inactive)
same,GI50,RPMI-8226,> 100 µM (inactive)
same,GI50,BT-549,> 100 µM (inactive)
same,GI50,OVCAR-8,> 100 µM (inactive)
same,GI50,UO-31,30.4 µM (inactive)
same,GI50,SK-MEL-2,> 100 µM (inactive)
same,GI50,DU-145,> 100 µM (inactive)
same,GI50,CCRF-CEM,> 100 µM (inactive)
same,GI50,SNB-75,> 100 µM (inactive)
same,GI50,OVCAR-4,> 100 µM (inactive)
same,GI50,HT-29,> 100 µM (inactive)
same,GI50,NCI-H23,> 100 µM (inactive)
same,GI50,SNB-19,> 100 µM (inactive)
same,GI50,Malme-3M,34.4 µM (inactive)
same,GI50,A498,> 100 µM (inactive)
same,GI50,KM12,> 100 µM (inactive)
same,GI50,HCT-116,> 100 µM (inactive)
same,GI50,A549,> 100 µM (inactive)
same,GI50,COLO 205,> 100 µM (inactive)
same,GI50,HOP-92,> 100 µM (inactive)
same,GI50,MDA-MB-231,> 100 µM (inactive)
same,GI50,MOLT-4,> 100 µM (inactive)
same,GI50,K562,> 100 µM (inactive)
same,GI50,NCI-H522,> 100 µM (inactive)
same,GI50,SK-OV-3,> 100 µM (inactive)
same,GI50,EKVX,> 100 µM (inactive)
same,GI50,SK-MEL-28,> 100 µM (inactive)
same,GI50,LOX IMVI,> 100 µM (inactive)
same,GI50,ACHN,> 100 µM (inactive)
same,GI50,OVCAR-3,> 100 µM (inactive)
same,GI50,SF-295,> 100 µM (inactive)
same,GI50,NCI/ADR-RES,> 100 µM (inactive)
same,GI50,U-251,> 100 µM (inactive)
same,GI50,SW-620,> 100 µM (inactive)
same,GI50,HCT-15,> 100 µM
same,GI50,OVCAR-5,> 100 µM (inactive)
same,GI50,HL-60,1.48 µM (inactive)
same,GI50,UACC-257,> 100 µM (inactive)
same,GI50,SK-MEL-5,> 100 µM (inactive)
same,GI50,IGROV-1,> 100 µM (inactive)
same,GI50,CAKI-1,> 100 µM (inactive)
same,GI50,MDA-MB-435,> 100 µM (inactive)
same,GI50,MDA-N,> 100 µM (inactive)
same,GI50,UACC-62,> 100 µM (inactive)
same,GI50,SR,> 100 µM (inactive)
same,GI50,MCF7,> 100 µM (inactive)
same,GI50,TK-10,> 100 µM (inactive)
same,GI50,PC-3,> 100 µM (inactive)
same,GI50,786-0,> 100 µM (inactive)
same,GI50,SN12C,> 100 µM (inactive)
same,GI50,HOP-62,> 100 µM (inactive)
same,GI50,SF-268,> 100 µM (inactive)
same,GI50,SF-539,> 100 µM (inactive)
same,GI50,NCI-H460,> 100 µM (inactive)
same,GI50,HCC 2998,> 100 µM (inactive)
CC1(C)OC(CCC#N)CN1C(=O)OCc1ccccc1 (stereo not drawn),GI50,M14,> 100 µM (inactive)
same,GI50,RPMI-8226,> 100 µM (inactive)
same,GI50,BT-549,20.7 µM (inactive)
same,GI50,OVCAR-8,> 100 µM (inactive)
same,GI50,UO-31,> 100 µM (inactive)
same,GI50,SK-MEL-2,> 100 µM (inactive)
same,GI50,DU-145,> 100 µM (inactive)
same,GI50,CCRF-CEM,> 100 µM (inactive)
same,GI50,SNB-75,3.4 µM (inactive)
same,GI50,OVCAR-4,> 100 µM (inactive)
same,GI50,NCI-H23,> 100 µM (inactive)
same,GI50,SNB-19,9.57 µM (inactive)
same,GI50,Malme-3M,49 µM (inactive)
same,GI50,A498,> 100 µM (inactive)
same,GI50,KM12,28.9 µM (inactive)
same,GI50,HCT-116,> 100 µM (inactive)
same,GI50,A549,> 100 µM (inactive)
same,GI50,COLO 205,> 100 µM (inactive)
same,GI50,HOP-92,> 100 µM (inactive)
same,GI50,MDA-MB-231,> 100 µM (inactive)
same,GI50,MOLT-4,> 100 µM (inactive)
same,GI50,K562,> 100 µM (inactive)
same,GI50,NCI-H522,75.2 µM (inactive)
same,GI50,SK-OV-3,> 100 µM (inactive)
same,GI50,EKVX,> 100 µM (inactive)
same,GI50,SK-MEL-28,> 100 µM (inactive)
same,GI50,LOX IMVI,> 100 µM (inactive)
same,GI50,ACHN,> 100 µM (inactive)
same,GI50,OVCAR-3,> 100 µM (inactive)
same,GI50,SF-295,> 100 µM (inactive)
same,GI50,NCI/ADR-RES,> 100 µM (inactive)
same,GI50,U-251,> 100 µM (inactive)
same,GI50,SW-620,> 100 µM (inactive)
same,GI50,HCT-15,> 100 µM
same,GI50,OVCAR-5,> 100 µM (inactive)
same,GI50,HL-60,> 100 µM (inactive)
same,GI50,UACC-257,> 100 µM (inactive)
same,GI50,SK-MEL-5,68.4 µM (inactive)
same,GI50,IGROV-1,> 100 µM (inactive)
same,GI50,CAKI-1,> 100 µM (inactive)
same,GI50,MDA-MB-435,> 100 µM (inactive)
same,GI50,MDA-N,> 100 µM (inactive)
same,GI50,UACC-62,> 100 µM (inactive)
same,GI50,SR,> 100 µM (inactive)
same,GI50,MCF7,> 100 µM (inactive)
same,GI50,NCI-H226,23.6 µM (inactive)
same,GI50,TK-10,> 100 µM (inactive)
same,GI50,PC-3,> 100 µM (inactive)
same,GI50,786-0,> 100 µM (inactive)
same,GI50,SN12C,> 10 µM (inactive)
same,GI50,SF-539,> 100 µM (inactive)
same,GI50,NCI-H460,> 100 µM (inactive)
same,GI50,RXF 393,> 100 µM (inactive)
same,GI50,HCC 2998,> 100 µM (inactive)
